In patent publication US7803930B2, “Antisense modulation of apolipoprotein B-expression” (Isis Pharmaceuticals, Inc., priority 2002, dated 2010):
In the oligonucleotide strings, read from the 5' end, every base follows the letter of its sugar. An asterisk marks phosphorothioate; unmarked linkages are phosphodiester. Other units and linkages are bracketed, terminal groups are in braces. A string of capitals states the bases alone. e = 2'-O-(2-methoxyethyl) (MOE); [5mC] = 5-methylcytosine; d = 2'-deoxy (DNA)

These substances were tested on human apolipoprotein B mRNA (assay: Inhibition of human apolipoprotein B mRNA levels in HepG2 cells, quantitative real-time PCR). Conditions: HepG2 cells treated with 150 nM of compound; averages from two experiments; quantitative real-time PCR.
Assay type: cell-based
Method in brief: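 Apolipoprotein B transcript was quantified by one-step TaqMan RT-PCR, normalized to GAPDH or RiboGreen RNA, and expressed as percent inhibition against an untreated-sample standard curve. HepG2 cells were harvested 16-24 h after oligonucleotide exposure, which was delivered with 3.75 μg/mL Lipofectin over 4-7 h at 80% confluency.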

Row | Substance | % INHIB (inhibition of human apolipoprotein B mRNA levels)
1 | 281606 (antisense eT*eG*e[5mC]*eA*eA*d[5mC]*dT*dG*dT*dA*dA*dT*d[5mC]*d[5mC]*dA*eG*e[5mC]*eT*e[5mC]*e[5mC]) [compound 281606] | 86%
2 | 281607 (antisense e[5mC]*e[5mC]*eA*eG*eT*dT*d[5mC]*dA*dG*d[5mC]*d[5mC]*dT*dG*d[5mC]*dA*eT*eG*eT*eT*eG) [compound 281607] | 84%
3 | 281608 (antisense eG*eT*eA*eG*eA*dG*dA*d[5mC]*d[5mC]*dA*dA*dA*dT*dG*dT*eA*eA*eT*eG*eT) [compound 281608] | 62%
4 | 281609 (antisense e[5mC]*eG*eT*eT*eG*dG*dA*dG*dT*dA*dA*dG*d[5mC]*dG*d[5mC]*e[5mC]*eT*eG*eA*eG) [compound 281609] | 70%
5 | 281610 (antisense e[5mC]*eA*eG*e[5mC]*eT*d[5mC]*dT*dA*dA*dT*d[5mC]*dT*dG*dG*dT*eG*eT*e[5mC]*e[5mC]*e[5mC]) [compound 281610] | 69%
6 | 281611 (antisense e[5mC]*eT*eG*eT*e[5mC]*d[5mC]*dT*d[5mC]*dT*d[5mC]*dT*d[5mC]*dT*dG*dG*eA*eG*e[5mC]*eT*e[5mC]) [compound 281611] | 93%
7 | 281612 (antisense e[5mC]*eA*eA*eG*eG*dT*d[5mC]*dA*dT*dA*d[5mC]*dT*d[5mC]*dT*dG*e[5mC]*e[5mC]*eG*eA*eT) [compound 281612] | 83%
8 | 281613 (antisense eG*eT*eA*eT*eG*dG*dA*dA*dA*dT*dA*dA*d[5mC]*dA*d[5mC]*e[5mC]*e[5mC]*eT*eT*eG) [compound 281613] | 70%
9 | 281614 (antisense eT*eA*eA*eG*e[5mC]*dT*dG*dT*dA*dG*d[5mC]*dA*dG*dA*dT*eG*eA*eG*eT*e[5mC]) [compound 281614] | 63%
10 | 281615 (antisense eT*eA*eG*eA*eT*d[5mC]*dT*d[5mC]*dT*dG*dG*dA*dG*dG*dA*eT*eT*eT*eG*e[5mC]) [compound 281615] | 81%
11 | 281616 (antisense eG*eT*e[5mC]*eT*eA*dG*dA*dA*d[5mC]*dA*d[5mC]*d[5mC]*d[5mC]*dA*dG*eG*eA*eG*eA*eG) [compound 281616] | 66%
12 | 281617 (antisense eA*e[5mC]*e[5mC]*eA*e[5mC]*dA*dG*dA*dG*dT*d[5mC]*dA*dG*d[5mC]*d[5mC]*eT*eT*e[5mC]*eA*eT) [compound 281617] | 89%
13 | 281618 (antisense eA*eA*eG*e[5mC]*eA*dG*dA*d[5mC]*dA*dT*d[5mC]*dT*dG*dT*dG*eG*eT*e[5mC]*e[5mC]*e[5mC]) [compound 281618] | 90%
14 | 281619 (antisense e[5mC]*eT*e[5mC]*eT*e[5mC]*d[5mC]*dA*dT*dT*dG*dA*dG*d[5mC]*d[5mC]*dG*eG*e[5mC]*e[5mC]*eA*eG) [compound 281619] | 96%
15 | 281620 (antisense e[5mC]*e[5mC]*eT*eG*eA*dT*dA*dT*dT*d[5mC]*dA*dG*dA*dA*d[5mC]*eG*e[5mC]*eA*eG*e[5mC]) [compound 281620] | 89%
16 | 281621 (antisense e[5mC]*eA*eG*eT*eG*d[5mC]*d[5mC]*dT*dA*dA*dG*dA*dT*dG*dT*e[5mC]*eA*eG*e[5mC]*eA) [compound 281621] | 53%
17 | 281622 (antisense eA*eG*e[5mC]*eA*e[5mC]*d[5mC]*dA*dG*dG*dA*dG*dA*d[5mC]*dT*dA*e[5mC]*eA*e[5mC]*eT*eT) [compound 281622] | 88%
18 | 281623 (antisense e[5mC]*e[5mC]*e[5mC]*eA*eT*d[5mC]*d[5mC]*dA*dG*dA*d[5mC]*dT*dG*dA*dA*eT*eT*eT*eT*eG) [compound 281623] | 59%
19 | 281624 (antisense eG*eG*eT*eT*e[5mC]*dT*dA*dG*d[5mC]*d[5mC]*dG*dT*dA*dG*dT*eT*eT*e[5mC]*e[5mC]*e[5mC]) [compound 281624] | 75%
20 | 281626 (antisense eA*eT*eG*eT*eG*d[5mC]*dA*dT*d[5mC]*dG*dA*dT*dG*dG*dT*e[5mC]*eA*eT*eG*eG) [compound 281626] | 88%
21 | 281627 (antisense e[5mC]*e[5mC]*eA*eG*eA*dG*dA*dG*d[5mC]*dG*dA*dG*dT*dT*dT*e[5mC]*e[5mC]*e[5mC]*eA*eT) [compound 281627] | 82%

Row | Substance | % INHIB (inhibition of human apolipoprotein B mRNA levels)
22 | 281628 (antisense e[5mC]*eT*eA*eG*eA*d[5mC]*dA*d[5mC]*dG*dA*dG*dA*dT*dG*dA*eT*eG*eA*e[5mC]*eT) [compound 281628] | 81%
23 | 281629 (antisense eT*e[5mC]*e[5mC]*eA*eA*dG*dT*d[5mC]*d[5mC]*dT*dG*dG*d[5mC]*dT*dG*eT*eA*eT*eT*e[5mC]) [compound 281629] | 83%
24 | 281630 (antisense e[5mC]*eG*eT*e[5mC]*e[5mC]*dA*dG*dT*dA*dA*dG*d[5mC]*dT*d[5mC]*d[5mC]*eA*e[5mC]*eG*e[5mC]*e[5mC]) [compound 281630] | 82%
25 | 281631 (antisense eT*e[5mC]*eA*eA*e[5mC]*dG*dG*d[5mC]*dA*dT*d[5mC]*dT*d[5mC]*dT*d[5mC]*eA*eT*e[5mC]*eT*e[5mC]) [compound 281631] | 88%
26 | 281632 (antisense eT*eG*eA*eT*eA*dG*dT*dG*d[5mC]*dT*d[5mC]*dA*dT*d[5mC]*dA*eA*eG*eA*e[5mC]*eT) [compound 281632] | 75%
27 | 281633 (antisense eG*eA*eT*eT*e[5mC]*dT*dG*dA*dT*dT*dT*dG*dG*dT*dA*e[5mC]*eT*eT*eA*eG) [compound 281633] | 73%
28 | 281634 (antisense e[5mC]*eT*e[5mC]*eT*e[5mC]*dG*dA*dT*dT*dA*dA*d[5mC]*dT*d[5mC]*dA*eT*eG*eG*eA*e[5mC]) [compound 281634] | 81%
29 | 281635 (antisense eA*eT*eA*e[5mC]*eA*d[5mC]*dT*dG*d[5mC]*dA*dA*d[5mC]*dT*dG*dT*eG*eG*e[5mC]*e[5mC]*eT) [compound 281635] | 89%
30 | 281636 (antisense eG*e[5mC]*eA*eA*eG*dA*dG*dT*d[5mC]*d[5mC]*dA*d[5mC]*d[5mC]*dA*dA*eT*e[5mC]*eA*eG*eA) [compound 281636] | 68%
31 | 281637 (antisense eA*eG*eA*eG*e[5mC]*d[5mC]*dT*dG*dA*dA*dG*dA*d[5mC]*dT*dG*eA*e[5mC]*eT*eT*e[5mC]) [compound 281637] | 74%
32 | 281638 (antisense eT*e[5mC]*e[5mC]*e[5mC]*eT*d[5mC]*dA*dT*d[5mC]*dT*dG*dA*dG*dA*dA*eT*e[5mC]*eT*eG*eG) [compound 281638] | 66%
33 | 281640 (e[5mC]*eA*eG*eT*eG*d[5mC]*dA*dT*d[5mC]*dA*dA*dT*dG*dA*d[5mC]*eA*eG*eA*eT*eG; antisense) [compound 281640] | 87%
34 | 281641 (e[5mC]*e[5mC]*eG*eA*eA*d[5mC]*d[5mC]*d[5mC]*dT*dT*dG*dA*d[5mC]*dA*dT*e[5mC]*eT*e[5mC]*e[5mC]*eT; antisense) [compound 281641] | 72%
35 | 281642 (eG*e[5mC]*e[5mC]*eT*e[5mC]*dA*d[5mC]*dT*dA*dG*d[5mC]*dA*dA*dT*dA*eG*eT*eT*e[5mC]*e[5mC]; antisense) [compound 281642] | 59%
36 | 281643 (eG*eA*e[5mC]*eA*eT*dT*dT*dG*d[5mC]*d[5mC]*dA*dT*dG*dG*dA*eG*eA*eG*eA*eG; antisense) [compound 281643] | 61%
37 | 281644 (e[5mC]*eT*eG*eT*e[5mC]*dT*d[5mC]*d[5mC]*dT*dA*d[5mC]*d[5mC]*dA*dA*dT*eG*e[5mC]*eT*eG*eG; antisense) [compound 281644] | 26%
38 | 281645 (eT*e[5mC]*eT*eG*e[5mC]*dA*d[5mC]*dT*dG*dA*dA*dG*dT*d[5mC]*dA*e[5mC]*eG*eG*eT*eG; antisense) [compound 281645] | 78%
39 | 281646 (eT*e[5mC]*e[5mC]*e[5mC]*eG*dG*dA*d[5mC]*d[5mC]*d[5mC]*dT*d[5mC]*dA*dA*d[5mC]*eT*e[5mC]*eA*eG*eT; antisense) [compound 281646] | 76%
40 | 281648 (eG*e[5mC]*eA*eG*eG*dT*d[5mC]*d[5mC]*dA*dG*dT*dT*d[5mC]*dA*dT*eA*eT*eG*eT*eG; antisense) [compound 281648] | 81%
41 | 281649 (eG*e[5mC]*e[5mC]*eA*eT*d[5mC]*d[5mC]*dT*dT*d[5mC]*dT*dG*dA*dG*dT*eT*e[5mC]*eA*eG*eA; antisense) [compound 281649] | 76%
42 | 301013 (e[5mC]*e[5mC]*e[5mC]*e[5mC]*eG*d[5mC]*dA*dG*dG*dT*d[5mC]*d[5mC]*d[5mC]*dG*dG*eT*eG*eG*eG*eA; antisense) [compound 301013] | 82%

Same assay, conditions: Table 12; HepG2 cells, 150 nM; averages from two experiments

Row | Substance | % INHIB
43 | 281639 (antisense eG*eA*e[5mC]*eG*eT*d[5mC]*dA*dG*dA*dA*d[5mC]*d[5mC]*dT*dA*dT*eG*eA*eT*eG*eG) [compound 281639] | 38%
44 | 281647 (eT*eG*eA*eG*eT*dG*dA*dG*dT*d[5mC]*dA*dA*dT*d[5mC]*dA*eG*e[5mC]*eT*eT*e[5mC]) [compound 281647] | 73%
